Results from patent US11485701B2, “Insect repellent compounds and compositions, and methods thereof” (Iowa State University Research Foundation, Inc., priority 2016, dated 2022).
Structures can show the parent of a compound that is named as a salt.

How the values were obtained:
[1] = tested on: Northern house mosquitoes (Culex pipiens); test: Short-term spatial repellency, static air repellency chamber; assay type: in vivo; conditions: for pest or weed control at 0.5 %: Culex pipiens, filter paper, air-dried 15 min
Procedure: (§1) Northern house mosquitoes (Culex pipiens), a primary carrier of West Nile virus in eastern North America, were obtained from an established colony in the Medical Entomology Laboratory in the Department of Entomology at Iowa State University of Science and Technology, Ames Iowa. Mosquito rearing was performed by established protocols that are maintained by the Medical Entomology Laboratory. Repellency bioassays were performed with adult female mosquitoes that emerged 5-7 days previously. […] Mosquitoes, prior to testing, were held at 27° C., 80% relative humidity, and on a 16:8 hr light:dark photoperiod.
Repellency bioassays were performed using a static air repellency chamber, which has been described in various publications by the Pesticide Toxicology Laboratory at Iowa State University of Science and Technology, Ames, Iowa Briefly, a 9-cm×60-cm glass tube was used to monitor the distribution of mosquitoes at 15 min, 30 min, 60 min, 90 min, 120 min, and 150 min after introducing mosquitoes into the static air repellency chamber. […] One end of the spatial chamber contained a treated filter paper, whereas the other (untreated) end of the spatial chamber was not treated with compound. Controls contained filter papers treated with acetone, the solvent used to make the 0.5% solutions. Each end of the repellency chamber was secured with a 100-mm Petri dish using celluloid tape. After securing the petri dishes with corresponding treated or untreated filter papers to the spatial chamber, mosquitoes were anesthetized with carbon dioxide, and approximately 20 female mosquitoes were placed into each repellency chamber for one replicate. The opening of the spatial repellency chamber was secured with celluloid tape to prevent their escape. Chambers were oriented in opposite directions from the previous replicate to account for any directional effect. Four replicates were performed for data analysis for both the control and treatment groups.
(§2) Data for spatial repellency, the percentage repellency, is reported at each of the respective time points in the figures and tables mentioned below. The percentage spatial repellency is the examination of the distribution of mosquitoes and is calculated using the following equation: […]

[2] = tested on: Northern house mosquitoes (Culex pipiens); test: Long-term spatial repellency, static air repellency chamber, filter papers air-dried 5 hours; assay type: in vivo; conditions: air-dried 5 hours; for pest or weed control at 0.5 %: Culex pipiens, 1 mL of 0.5% solution in acetone
Procedure: as §1, with “were” for “emerged”, “post-emergent.” for “previously.”
Repellency bioassays were performed using a static air repellency chamber, which has been described in various publications by the Pesticide Toxicology Laboratory at Iowa State University of Science and Technology, Ames, Iowa Briefly, a 9-cm×60-cm glass tube was used to monitor the distribution of mosquitoes at 15 min, 30 min, 60 min, 90 min, 120 min, and 150 min after introducing mosquitoes into the static air repellency chamber. Treated filter papers were treated with 1 mL of 0.5% solution in acetone of the terpenoid analogs created in the lab and were exposed to ambient air for 5 hours before they were introduced into the spatial chamber for testing. This is a slight modification of the method described in Example 2, so as to evaluate the residual repellent character of these compounds on a treated surface after 5 hours. One end of the spatial chamber contained a treated filter paper, whereas the other (untreated) end of the spatial chamber was not treated with compound. Controls contained filter papers treated with acetone, the solvent used to make the 0.5% solutions. Each end of the repellency chamber was secured with a 100-mm Petri dish using celluloid tape. After securing the petri dishes with corresponding treated or untreated filter papers to the spatial chamber, mosquitoes were anesthetized with carbon dioxide, and approximately 20 female mosquitoes were placed into each repellency chamber for one replicate. The opening of the spatial repellency chamber was secured with celluloid tape to prevent their escape. Chambers were oriented in opposite directions from the previous replicate to account for any directional effect. Four replicates were performed for data analysis for both the control and treatment groups.
as §2, with “below in this disclosure.” for “below.”

[3] = 0.25 h, 1 mL of 0.5% solution in acetone, 15 min after introduction, read-out: Short-term Percentage repellency 15 min
[4] = 1.5 h, 1 mL of 0.5% solution in acetone, 90 min, read-out: Short-term Percentage repellency 90 min
[5] = 2.5 h, 1 mL of 0.5% solution in acetone, 150 min, read-out: Short-term Percentage repellency 150 min
[6] = 0.25 h, 15 min, read-out: Long-term Percentage repellency 15 min
[7] = 1.5 h, 90 min, read-out: Long-term Percentage repellency 90 min
[8] = 2.5 h, 150 min, read-out: Long-term Percentage repellency 150 min

Row | Structure (SMILES) | pest or weed control at 0.5 % [1, 3] [%] | pest or weed control at 0.5 % [1, 4] [%] | pest or weed control at 0.5 % [1, 5] [%] | pest or weed control at 0.5 % [2, 6] [%] | pest or weed control at 0.5 % [2, 7] [%] | pest or weed control at 0.5 % [2, 8] [%] | Short-term repellency at low concentration, in words ([1]; filter paper treated with 0.1%, FIG. 6) | Long-term repellency, in words ([2]; 0.5% solution) | Long-term percentage repellency 60 min ([2]; 0.5% solution, 60 minutes) [%] | Short-term spatial repellency, in words ([1]; 1 mL of 0.5% solution in acetone) | Short-term percentage repellency 30 min ([1]; 1 mL of 0.5% solution in acetone, 30 minutes) [%] | Short-term percentage repellency 120 min ([1]; 1 mL of 0.5% solution in acetone, 120 minutes) [%]
1 | Cc1ccc(C(C)C)c(OC=O)c1 [Compound 1107A, thymyl formate] | 35 | 80 | 75 | 25 | 17.5 | 22.5 | – | – | – | – | – | –
2 | O=C(OC/C=C/c1ccccc1)C1CCC1 [Compound 2039, cinnamyl cyclobutanecarboxylate] | 30 | – | – | 40 | 57.5 | 60 | – | – | – | – | – | –
3 | CC(C)=CCC/C(C)=C/C(=O)OCC1CC1 [Compound 2020, cyclopropylmethyl geranate] | – | – | – | 40 | 45 | 40 | – | – | – | – | – | –
4 | C#CCOC(=O)CC(C)CCC=C(C)C (stereo not drawn) [Compound 1060D, propargyl citronellate] | 60 | 72.5 | 70 | 15 | 62.5 | 77.5 | – | – | – | – | – | –
5 | CC(C)=CCCC(C)CCOC(=O)c1ccco1 (stereo not drawn) [Compound 2186, citronellyl 2-furoate] | – | – | – | 25 | 42.5 | 40 | significant levels of repellency | – | – | – | – | –
6 | CCN(CC)C(=O)c1cccc(C)c1 [N,N-diethyl-meta-toluamide (DEET), N,N-diethyl-meta-toluamide, reference compound] | 20 | 50 | 56.7 | 32.5 | 32.5 | 45 | – | – | – | – | – | –
7 | Cc1ccc(C(C)C)cc1OC=O [Compound 1107B, carvacryl formate] | – | – | – | 30 | 37.5 | 42.5 | – | – | – | – | – | –
8 | CC(C)=CCCC(C)CCOC(=O)CC(C)C (stereo not drawn) [Compound 1034B, citronellyl isovalerate] | 17.5 | 77.5 | 82.5 | 30 | 30 | 32.5 | – | – | – | – | – | –
9 | CC(C)=CCC/C(C)=C/COC(=O)C1CC1 [Compound 2023A, geranyl cyclopropanecarboxylate] | 45 | 42.5 | 45 | 45 | 42.5 | 45 | – | much greater than DEET | 47.5 | – | – | –
10 | CC1CCC(C(C)C)C(OC(=O)C2CC2)C1 (stereo not drawn) [Compound 1033B, menthyl cyclopropanecarboxylate] | 15 | 95 | 92.5 | 65 | 71.7 | 82.5 | – | much greater than DEET | – | very effective spatial repellent | 47.5 | 95
11 | Cc1ccc(C(C)C)c(OC(=O)CC(C)C)c1 [Compound 1055B, thymyl isovalerate] | 12.5 | 65 | 77.5 | 0 | 22.5 | 27.5 | – | – | – | – | – | –
12 | CC(C)=CCCC(C)CCOC(=O)C(C)C (stereo not drawn) [Compound 2204, citronellyl isobutyrate] | 25 | 80 | 90 | -5 | 7.5 | 10 | – | – | – | – | – | –
13 | CC(C)=CCCC(C)CCOC(=O)C(C)(C)C (stereo not drawn) [Compound 1036A, citronellyl pivalate] | 25 | 90 | 92.5 | 27.5 | 17.5 | 20 | – | – | – | – | – | –
14 | CC(C)=CCCC(C)CCOC(=O)C1(C)CCC1 (stereo not drawn) [Compound 2106, citronellyl 1-methylcyclobutanecarboxylate] | 30 | 60 | 67.5 | 15 | 10 | 15 | – | – | – | – | – | –
15 | CC(C)=CCCC(C)CCOC(=O)C1CC(=O)C1 (stereo not drawn) [Compound 3067, citronellyl 3-oxocyclobutanecarboxylate] | 47.5 | 60 | 62.5 | 12.5 | 0 | 25 | – | – | – | – | – | –
16 | Cc1ccc(C(C)C)c(OC(=O)C2CCCCC2)c1 [Compound 2085, thymyl cyclohexanecarboxylate] | 17.5 | 35 | 50 | 17.5 | 35 | 50 | – | – | – | – | – | –
17 | Cc1ccc(C(C)C)c(OC(=O)C(C)(C)F)c1 [Compound 1121A, thymyl 2-fluoroisobutyrate] | 77.5 | 97.5 | 97.5 | 22.5 | 50 | 65 | – | – | – | – | – | –
18 | C=CC(C)(C)OC(=O)CC(C)CCC=C(C)C (stereo not drawn) [Compound 2170, tert-prenyl citronellate] | 80 | 92.5 | 82.5 | 2.5 | 7.5 | -2.5 | – | – | – | – | – | –
19 | CC(C)=CCCC(C)CCOC(=O)C1CCCC1 (stereo not drawn) [Compound 2119, citronellyl cyclopentanecarboxylate] | -1.25 | 33.8 | 52.5 | 20 | 55 | 45 | – | – | – | – | – | –
20 | C=C(C)C1CC=C(COC(=O)C2CCC2)CC1 (stereo not drawn) [Compound 2033, perillyl cyclobutanecarboxylate] | – | – | – | 27.5 | – | – | – | – | – | – | – | –
21 | CC(C)=CCCC(C)CC(=O)OCCO (stereo not drawn) [Compound 1052S3, 2-hydroxyethyl citronellate] | – | – | – | 37.5 | 65 | 75 | – | – | – | – | – | –
22 | CC(C)=CCC/C(C)=C\COC(=O)C1(C)CCC1 [Compound 2108, neryl 1-methylcyclobutanecarboxylate] | 60 | 90 | 85 | – | – | – | – | – | – | – | – | –
